Experimental data published in ChEMBL document CHEMBL5523728, “Fragment-Based Discovery of a Series of Allosteric-Binding Site Modulators of β-Glucocerebrosidase” (J Med Chem, 2024).
The source made the active and inactive calls. No cut-off for these calls is given here.

The compounds below were run against T1, Lysosomal acid glucosylceramidase (Homo sapiens, UniProt P04062) (assay: Positive allosteric modulation of GCase in human Fibroblast cells using GBA1-FQ2 as substrate preincubated for 24 hrs followed by substrate addition and measured after 3 hrs by Hoechst 33342 staining based imaging analysis). Settings: not given.
T1 sequence (P04062 whole entry): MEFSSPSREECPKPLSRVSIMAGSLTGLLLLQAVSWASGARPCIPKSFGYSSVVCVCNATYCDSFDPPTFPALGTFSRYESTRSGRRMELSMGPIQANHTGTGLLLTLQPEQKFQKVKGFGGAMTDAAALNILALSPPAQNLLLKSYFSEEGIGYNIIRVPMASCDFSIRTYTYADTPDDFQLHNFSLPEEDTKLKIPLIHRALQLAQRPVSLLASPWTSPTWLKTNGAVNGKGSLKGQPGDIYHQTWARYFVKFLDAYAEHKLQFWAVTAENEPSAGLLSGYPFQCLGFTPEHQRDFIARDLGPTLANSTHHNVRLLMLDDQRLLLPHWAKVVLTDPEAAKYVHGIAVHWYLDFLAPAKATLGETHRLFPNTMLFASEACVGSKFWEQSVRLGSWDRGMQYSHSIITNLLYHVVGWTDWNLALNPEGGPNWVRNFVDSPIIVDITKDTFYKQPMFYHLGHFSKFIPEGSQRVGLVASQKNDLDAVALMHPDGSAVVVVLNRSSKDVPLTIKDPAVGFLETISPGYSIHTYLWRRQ
Format: cell-based

| EC50 | SMILES |
| --- | --- |
| 8.9 µM | CCCOc1cc(F)cc(S(=O)(=O)N(C)C[C@@H](N)c2cccc(N(C)C)c2)c1 |
| 9 µM | C=C(C)c1cccc([C@@H](N)CN(C)S(=O)(=O)c2cc(F)cc(F)c2)c1 |

What follows are compounds tested against T2, Lysosomal acid glucosylceramidase (Homo sapiens) (UniProt P04062) (assay: not given). Settings: Fibroblast, dose 0.5 mM, time 27.0 hrs.
T2 sequence (whole entry): T1 sequence (P04062 whole entry)

| inhibition | SMILES |
| --- | --- |
| Active | O[C@H]1[C@H](O)[C@@H](O)[C@@H]2O[C@@H]2[C@@H]1O |

The compounds below were run against T1, Lysosomal acid glucosylceramidase (assay: biochemical). Settings: not given.

| SMILES | Kd |
| --- | --- |
| CCCOc1cc(F)cc(S(=O)(=O)N(C)C[C@@H](N)c2cccc(N(C)C)c2)c1 | 0.018 µM |
| C=C(C)c1cccc([C@@H](N)CN(C)S(=O)(=O)c2cc(F)cc(F)c2)c1 | 0.05 µM |
| O=S(=O)(NCC1CC1)c1ccccc1 | 410 µM |
| N[C@H](CNS(=O)(=O)c1cc(F)cc(F)c1)c1ccccc1 | 1 µM |
| CN(C[C@H](N)c1cccc(Cl)c1)S(=O)(=O)c1cc(F)cc(F)c1 | 0.25 µM |
| CN(C[C@@H](N)c1cccc(Br)c1)S(=O)(=O)c1cc(F)cc(F)c1 | 0.18 µM |
| CN(CC(F)F)c1cccc([C@@H](N)CN(C)S(=O)(=O)c2cc(F)cc(F)c2)c1 | 0.22 µM |
| c1ccc(CC2CCNCC2)cc1 | 19 µM |

Second part, the compound after the results:

| Kd | SMILES |
| --- | --- |
| 3 µM | N[C@H](CNS(=O)(=O)c1cccc(F)c1)c1ccccc1 |
| 7 µM | N[C@H](CNS(=O)(=O)c1ccccc1)c1ccccc1 |
| 100 µM | Cc1ccc(S(=O)(=O)NCC(C)N)cc1 (racemic) |
| 180 µM | NCC(O)CNS(=O)(=O)c1ccccc1F (racemic) |
